Common to all, as to test: NCI tumour cell line growth inhibition, 48 h
Assay [1] relates to HOP-62 NSCLC.
Assay [2] deals with A549 NSCLC.
For assay [3], the system named is OVCAR-4 ovarian.
In assay [4] the test system is EKVX NSCLC.
Assay [5] concerns LOX IMVI melanoma.
For assay [6], the system named is HCC-2998 colon.
The test system of assay [7] is OVCAR-3 ovarian.
Assay [8] deals with A498 renal.
Assay [9] deals with NCI/ADR-RES ovarian.

SMILES strings stand for the structures.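 Exposure lasted 48 hours, with cells grown in 96-well plates and compounds tested at five concentrations. GI50: concentration for 50% inhibition of growth. TGI is the concentration that stops growth completely.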 A value given as a limit tells only on which side of the number the result lay.

`CC(=O)[CH-]C(=O)c1ccccc1.CC(=O)[CH-]C(=O)c1ccccc1.CC[O-].CC[O-].[Zr+4]`: the GI50 in [1] is > 100 µM; in [2], > 100 µM; in assay [3] it was > 100 µM; in [4] it was 91.6 µM; in assay [5], > 100 µM; in [6] it was > 100 µM. Also, the GI50 in assay [7] was > 100 µM. Besides, the TGI in assay [1], in [2], in assay [3], in [4], in assay [5] and in assay [6] was > 100 µM in each case. The TGI in assay [7] was > 100 µM.

On to `O=C(O)C(CP(=O)(O)O)=C(Cl)Cl`, for which the TGI in assay [1], in assay [2], in assay [4], in [5], in assay [6] and in assay [7] was > 100 µM in each case.

On to `Cc1ccc(NC(=O)CCC(CC(=O)C(C)(C)C)=NNC(=O)C(=O)NN)cc1C`, for which the TGI in assay [1], in assay [2], in assay [3], in [4], in assay [5] and in assay [6] was > 100 µM throughout. Moreover, the TGI in assay [7] is > 100 µM.

On to `COc1cc(/C=C2/C(=O)N(C(=O)OC(C)C)C(Cc3cc(OC)c(OC)c(C)c3OC)C(=O)N2Cc2ccccc2)c(OC)c(C)c1OC` (stereo unspecified), for which the TGI in assay [8], in assay [1], in [2], in assay [3], in assay [4] and in assay [5] was > 100 µM throughout. The TGI in assay [6] and in assay [7] was > 100 µM each time.

Turning to `COc1ccc(C(=O)OCC2OC(n3cnc4c(=S)nc[nH]c43)C(OC(=O)c3ccc(OC)cc3)C2OC(=O)c2ccc(OC)cc2)cc1` (stereo unspecified), the TGI in assay [1], in [2], in assay [3], in [6] and in assay [7] was > 100 µM throughout.

`CCC[CH2][Sn]1([CH2]CCC)[O]C(=O)c2cc(I)cc(I)c2[O]1`: the GI50 in assay [8] was 1.37 µM; in assay [1] it was 2.13 µM; in assay [2] it was 2.72 µM; in assay [3] it was 1.41 µM; in assay [4], 1.35 µM; in [5], 0.8 µM. For the same compound, the GI50 was 1.37 µM in assay [6] and 1.42 µM in [7]. Besides, the TGI in [8] stood at 2.67 µM; in assay [1] it was 4.12 µM; in assay [2], 8.41 µM; in assay [3], 2.83 µM; in assay [4], 3.4 µM; in [5] it was 2.39 µM. Moreover, the TGI in assay [6] was found to be 2.7 µM; in assay [7], 2.77 µM.

`Cc1c(Cl)ccc2c1NC(=O)C2(O)C(C(=O)c1ccccc1)c1ccccc1` (stereo unspecified): the TGI in [8] is 70.1 µM; in assay [1], > 100 µM; in assay [2] it was > 100 µM; in assay [3], 28.7 µM; in assay [4] it was > 100 µM; in [5], > 100 µM. For the same compound, in [6], the TGI is > 100 µM.

`C/C(=C\C(C)COCc1ccccc1)[C@H](COCc1ccccc1)OCc1ccccc1` (stereo partly specified): the TGI in [8], in assay [1], in [2], in assay [3], in [4] and in assay [5] was > 100 µM each time. In addition, the TGI in assay [6] and in assay [7] was > 100 µM each time.

With `Cc1ccc(NC(=O)C(=O)C2C(=O)N(c3ccccc3)N=C2N)cc1C` (stereo unspecified), the TGI in assay [8], in assay [1], in [2], in [3], in assay [4] and in assay [6] was > 100 µM throughout. Further, the TGI in assay [7] was > 100 µM.

As to `COc1cc(/C=C2\[C@H]3c4c(c(OC)c(C)c(OC)c4OC)C[C@@H](C(=O)N2Cc2ccccc2)N3C(=O)OCC(C)C)c(OC)c(C)c1OC`, the TGI in [8], in assay [1], in assay [2], in assay [3], in [4] and in assay [5] was > 100 µM each time. For the same compound, the TGI in assay [6] and in [7] was > 100 µM in each case.

Turning to `O=c1/c(=C/c2cccc([N+](=O)[O-])c2)sc2nc3ccccc3n12`, the TGI in assay [8], in [1], in assay [3], in assay [4], in assay [5] and in assay [6] was > 100 µM each time.

Take `[O-]c1c2c(nn1-c1ccccc1)c1ccccc1c[n+]2Cc1ccccc1`: the TGI in assay [1], in assay [2], in [3], in assay [4], in assay [5] and in assay [6] was > 100 µM in each case. The TGI in assay [7] is > 100 µM.

Turning to `CC(=O)OC(/C=C1/C=CC(=O)O1)COC(=O)c1ccccc1` (stereo unspecified), the TGI in [8], in assay [1], in assay [2], in assay [3], in assay [4] and in assay [5] was > 31.2 µM each time. Moreover, the TGI in assay [6] and in assay [7] was > 31.2 µM throughout.

As to `CCOC(=O)C12CCCC1(O)N(NC(=O)c1ccccc1)C(C)=C2C(=O)OC` (stereo unspecified), the TGI in [8], in assay [1], in assay [2], in assay [3], in [4] and in [5] was > 100 µM each time. Also, the TGI in assay [6] and in assay [7] was > 100 µM throughout.

For `Oc1ccc(-c2nnc3sc(-c4ccc(F)c(Oc5ccccc5)c4)nn23)cc1`, the GI50 in assay [9] was 66.5 µM; in assay [1], 21.2 µM; in [2] it was 30.9 µM; in assay [3], > 100 µM; in [4], 34.8 µM; in [5], 36.7 µM. Besides, the results for the GI50 in [6] and in assay [7] were 73.2 µM and 28.8 µM, respectively. For the same compound, the TGI in [9] is > 100 µM; in assay [1], 42.7 µM; in assay [2], > 100 µM; in assay [3], > 100 µM; in assay [4], > 100 µM; in assay [5], > 100 µM. In addition, the results for the TGI in assay [6] and in assay [7] were > 100 µM and 76.4 µM, respectively.

(Values after PubChem BioAssay (NCI).)
